Holding throughout (format): cell-based
For experiment [1], the system named is guinea pig ileal strips. The experiment is described as follows: Modified Schultz-Dale Assay: inhibition of antigen-induced anaphylactic contraction of passively sensitized ileal strips. The following applies: Cavia porcellus; for IC50: value in parentheses. The method, then:
In the classic Schultz-Dale assay, guinea pigs are sensitized with a known immunogen or passively sensitized with guinea pig antiserum to the immunogen, strips of ilea are recovered, and the extent of their contraction in response to a challenge exposure to the same antigen is observed as a measure of anaphylactic response. The experiments described here follow this same procedure while exposing the ileal strips to test compound before exposure to antigen challenge (preincubation) and, in some strips, also after antigen challenge (postincubation).
The male Hartley strain guinea pigs (450-650 g) whose ilea are used in this Schultz-Dale assay are passively sensitized with IgE antiovalbumin antiserum as follows. The antiserum is developed in another group of similar guinea pigs as described in Graziano, et al., J. Immunol. 127:1067-1070 (1981) and pooled. The test animals are then each passively sensitized by subcutaneous injection of the pooled antiserum (1 ml).
About 2-7 days after sensitization, the guinea pigs are sacrificed and the terminal ilea are removed. They are cut into strips (6 cm) and positioned in tissue baths (5 ml) of Tyrode's solution with atropine (1 μg/ml) at 37° C. One end of each strip is fixed to an immobile post and the other movably mounted to a Grass Ft. 0.03 linear force displacement transducer and a Grass Model 7 polygraph. The tension is set (at 1 gram) and the tissue is allowed to equilibrate (10 minutes). Tissue viability is tested by establishing a consistent response to histamine (0.5 μg/ml). After several histamine-induced contractions, mepyramine (1 μg/ml) is added to inhibit any contractions due to the anaphylactic release of endogenous histamine.
A minimum of 3 animals are used for each compound tested and, of the 6 strips from each animal, 2 strips are incubated (preincubation) with a test compound (final concentration 75 μM), 2 with an appropriate reference standard (BW-755C at 75 μM) and 2 with saline solution (control) for a predetermined period (5 minutes). After this initial incubation period, ovalbumin (100 μg/ml) is added to each bath and the resulting anaphylactic contraction measured. The data are recorded as of tension produced by the tissue in excess of the 1 gram tension that was initially set. At the peak of the contraction, a dose of the same test compound (75 μM) is added (postincubation) to one control strip and reference standard (FPL-55712 at 1.9 μM). The strips are monitored (1 minute) and any effect on the established contraction is recorded as described above.
Two types of data are derived from the above protocol. First, pre-antigen inhibition (prechallenge) is expressed as the percent inhibition in each of the strips preincubated with test compound measured against the averaged contractions of the two control strips. Prechallenge inhibition by the reference standard is also determined in each experiment as a positive control. The reference used consistently gives 60-80% inhibition. Second, post-antigen inhibition (postchallenge) is determined by measuring the decrease in anaphylactic contraction of a control strip produced by adding either a test compound or standard at the peak of the contraction. The reference used consistently gives 70-90% inhibition. The data in each experiment, therefore, consists of 2 prechallenge and 1 postchallenge value for both test compound and standard.

Experiment [2] concerns 5-HETE biosynthesized by glycogen-stimulated polymorphonuclear leucocytes (PMNs). Put plainly: Hydroxyacid Profile Assay (HPA): inhibition of 5-HETE synthesis in glycogen-elicited rabbit PMNs. The conditions noted are these: Oryctolagus cuniculus, Leucocyte, read-out: Percent Inhibition; for inhibition at 50 µM: **tested at 50 μM.
Experiment [3] has as its system guinea pig ileal strips. The experiment is described as follows: Modified Schultz-Dale Assay: inhibition of antigen-induced anaphylactic contraction of passively sensitized ileal strips. The following applies: Cavia porcellus, **tested at 20 μg/ml.
In experiment [4] the test system is 5-HETE biosynthesized by glycogen-stimulated polymorphonuclear leucocytes (PMNs). The experiment is described as follows: Hydroxyacid Profile Assay (HPA): inhibition of 5-HETE synthesis in glycogen-elicited rabbit PMNs. The conditions noted are these: Oryctolagus cuniculus, Leucocyte. The method, then:
As previously noted 5-HETE biosynthesis serves as a marker for arachidonic acid metabolism via the 5-lipoxygenase pathway which produces (poly)hydroxyeicosatetraenoic acids and the potent bronchoconstrictor and vasoactive leukotrienes LTC4, LTD4 and LTE4.
Buffer A (8.70 g NaCl; 0.27 g KCl; 0.42 g Na2 HPO4; 0.76 g KH2 PO4; and 1.00 g dextrose per liter H2 O; pH 7.0) (0.325 ml) is introduced into each of a battery of screwtop culture tubes. Then, a solution of a compound (0.100 ml) to be assayed is dispensed into individual tubes. Assays are performed in duplicate at 100 μM and 10 μM concentrations. Control tubes receive Buffer A (0 100 ml) in lieu of compound. Next, rabbit PMNs (2×10^7 cells/tube; 4×10^7cells/ml) (0.500 ml) are added to each tube. The rabbit PMN's used are elicited with glycogen and made into a preparation substantially as described by F. Hirata. et al (1979) Proc. Natl. Acad. Sci. USA, 76, 2640-2643. The tubes are vortexed and preincubated in a shaking 37° C. water bath for 15 minutes.
Thereafter, the tubes are removed from the water bath and calcium ionophore solution (400 μg/ml A-23187; Sigma Chemical Co., St. Louis, Mo.) (0.025 ml), ^14 C-arachidonic acid (0.25 μCi in 0.025 ethanol; New England Nuclear Products, Boston, Mass.) (0.025 ml) and calcium chloride solution (CaCl2.2H2 O ); 105.8 mg/10 […]) (0.025 ml) are added in that order. The tubes are vortexed and returned to the water bath for 30 minutes. The reaction is then terminated by the addition of HCl (0.8N, 0.025 ml).
Extraction and concentration of ^14 C-labeled 5-HETE is performed as follows. First, solution containing 2 parts ethyl acetate, 3 parts CH2 Cl2 and 0.01 ml unlabeled arachidonic acid is added (5.01 ml) to each tube. The tubes are capped and briefly vortexed. The contents of each tube is poured into a polypropylene column fitted with a porous polyethylene disc and Whatman phase separation filter paper. The organic phase is collected by gravity filtration into a conical centrifuge tube, While the aqueous phase is retained in the column by the phase separation paper. Each culture tube is rinsed once with the EtOAc:CH2 Cl2 solution (1.0 ml) and the wash added to the column. The organic phase is concentrated to (0.5 ml) using a Savant Speed Vac concentrator (Savant Instruments, Inc., Hicksville, N.Y.).
After concentration of the organic phase, the tubes are vortexed and stored covered on ice. An aliquot (0.01 ml) is then removed for liquid scintillation counting in a Beckman LS7500 Liquid Scintillation Counter (Beckman Instruments Corp., Fullerton, Calif.). Based on the count, the number of μl containing 1×10^5 cpm is calculated. This volume is applied to a silica gel covered glass plate in a 10 mm streak. The remaining fluid in the tube is measured via syringe and noted.
The TLC plate is placed in a chromatography chamber containing the following solvent system: CHCl3 :MeOH:HOAc:H2 O (v/v;90: 9:1:0.65). The plate is then air dried and counted on a Berthold Linear TLC Analyzer (Berthold Instruments, Inc., Pittsburgh, Pa.) for 30 minutes per lane if a dose response curve had been run, or for 5 min per lane if drug screening had been done. The integrated area of the 5-HETE band for each compound is converted to percent of control and analyzed. The percent inhibition at 100 μM compound concentration and the concentration (μM) which produces a 50% inhibition of 5-HETE synthesis (IC50), are determined for those compounds described in Examples 1-36, and are reported in Table 1 .

The mark [5] stands for this setting: added at peak of contraction after antigen, read-out: Postchallenge mean percent inhibition.
The mark [6] stands for this setting: preincubation before ovalbumin antigen, read-out: Prechallenge mean percent inhibition.

As a reminder, the inhibition is the change of the read-out against control, counted positive when it falls. One may read the IC50 as the point on the concentration scale where inhibition reaches its midpoint.

Read-outs that look alike come from different tables or passages of the source. Bounds are passed on as bounds.

For the compound `CCCCCCCc1ccc(C(=O)c2ccc(C(=O)O)cc2)cc1` [Example 14, 4-(4-n-Heptylbenzoyl)benzoic acid], the inhibition at 75 µM in the experiment on guinea pig ileal strips [1] (setting [5]) was 16%; in the experiment with guinea pig ileal strips [1] (setting [6]) it was 44%. Besides, in experiment [2], the inhibition at 50 µM was 87%.

For `CCCCCCCc1ccc(C(=O)CCCCCC(=O)O)cc1` [Example 20, 6-(4-n-Heptylbenzoyl)hexanoic acid], the inhibition at 75 µM amounted to 3% in the experiment on guinea pig ileal strips [1] (setting [5]) and 57% in the experiment on guinea pig ileal strips [1] (setting [6]). The inhibition at 50 µM in experiment [2] worked out at 60%.

As to `O=C(O)CCCC(=O)c1ccccc1` [Example 22, 4-Benzoylbutanoic acid, reference compound], the inhibition at 1000 µM in experiment [2] (at 1000 μM) amounted to 0%. Also, the inhibition at 20 µg/mL in the experiment on guinea pig ileal strips [3] (setting [5]) is 11%; in the experiment with guinea pig ileal strips [3] (setting [6]) it was 0%.

For the compound `CCCCCc1ccc(C(=O)CCCCC(=O)O)cc1` [Example 2, 5-(4-n-Pentylbenzoyl)pentanoic acid], the inhibition at 100 µM in experiment [4] (100 μM, 5-HETE synthesis, read-out: Percent Inhibition (100 μM)) stood at 59%. Also, the IC50 in experiment [4] (read-out: IC50 (50% inhibition of 5-HETE synthesis)) is 70 µM; with guinea pig ileal strips [1] (added at peak of contraction after antigen, read-out: Postchallenge IC50), > 75 µM; with guinea pig ileal strips [1] (preincubation before ovalbumin antigen, read-out: Prechallenge IC50) it was 35 µM. The results for the inhibition at 20 µg/mL in the experiment with guinea pig ileal strips [3] (setting [5]) and in the experiment with guinea pig ileal strips [3] (setting [6]) were 58% and 81%, respectively.

Values taken from patent US5504244A, “Alkylarylketo acids” (Boehringer Ingelheim Pharmaceuticals, Inc., priority 1993, dated 1996).
